Measurements as given in patent US20160002294A1, “NOVEL POLYPEPTIDES HAVING SATIETY HORMONE RELEASING ACTIVITY” (SOLAE LLC, priority 2013, published 2016).
Like-named read-outs stand apart in the source and are kept apart here.

Legend:
STC-1 cells [1] = conditions: 4 h
Method: To assay for CCK release activity, SEQ ID NO: 1 was dissolved in Dulbecco's phosphate buffered saline (D-PBS) at 10 mg/ml. This solution was then diluted to between 0.002 and 4 mg/ml with d-PBS, then added to media of STC-1 cells (passage 25 to 28) in 1:1 ratio of D-PBS and Dulbecco's Modified Eagle's Medium (DMEM-high glucose) and incubated with the cells at 37° C. (99° F.) and a CO2 level of 5% for 4 hours. The solution containing SEQ ID NO: 1 was added to cells at a variety of concentrations ranging from 0.001 to 2 mg/ml to generate a dose-response curve.
Following the incubation period, concentrations of CCK released by STC-1 cells into the media were assayed using a commercially available immunoassay kit for CCK detection from Phoenix Pharmaceuticals, Burlingame, Calif. (catalogue number EK-069-04). Assays were performed according to the manufacturer's instructions using a standard curve covering a range of concentrations from 0.4 to 1000 pg/well. Absorbance was measured at a wavelength of 450 nm.
CCK quantities obtained from each tested concentration of SEQ ID NO: 1 were plotted vs. log concentration of peptide. A dose-response curve was then generated by fitting the data with a logistic function using OriginLab graphing software.
Each variant was assayed for CCK activity at 2 mg/ml using the method described in Example 1.

STC-1 cells [2] = conditions: 2 h
Method: To assay for GLP-1 release activity, SEQ ID NO: 1 was dissolved in Dulbecco's phosphate buffered saline (D-PBS) at 10 mg/ml. This solution was diluted to between 0.002 and 4 mg/ml with D-PBS, then added to media of STC-1 cells (passage 25 to 28) in 1:1 ratio of D-PBS and Dulbecco's Modified Eagle's Medium (DMEM-high glucose) and incubated with the cells at 37° C. (99° F.) and a CO2 level of 5% for 2 hours. The solution containing SEQ ID NO: 1 was added to cells at a variety of concentrations ranging from 0.001 to 2 mg/ml to generate a dose-response curve.
Following the incubation period, concentrations of GLP-1 released by the STC-1 cells into the media were assayed using a commercially available immunoassay kit for GLP-1 detection from Phoenix Pharmaceuticals, Burlingame, CA (catalogue number EK-028-11). Assays were performed according to the manufacturer's instructions using a standard curve covering a range of concentrations from 0.4 to 1000 pg/well. Absorbance was measured at a wavelength of 450 nm.
GLP-1 quantities obtained from each tested concentration of SEQ ID NO: 1 were plotted vs. log concentration of peptide. A dose-response curve was then generated by fitting the data with a logistic function using OriginLab graphing software.
Each variant was assayed for GLP-1 activity at 2 mg/ml using the method described in Example 2.

In the case of “H-TSLDFPALSWLRL-OH [SEQ ID NO: 1, NH2-TSLDFPALSWLRL-COOH]”, the EC50 (STC-1 cells [1]) is reported as 43 µM and the EC50 (STC-1 cells [2]) is reported as 186 µM.
